# Measurements reported in patent US20100317647A1 (priority 2009, published 2010).
# Target: human Cat S (Homo sapiens, UniProt P25774)
# Assay: Cathepsin enzyme inhibition assay (fluorogenic peptide substrate cleavage)
# Assay type: biochemical
# Conditions: human Cat S 1 nM; substrate Z-Val-Val-Arg-AMC 20 μM; pH 6.5; fluorescence over 20 minutes
# Method in brief: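 Fluorogenic cleavage of Z-Val-Val-Arg-AMC (20 μM) by 1 nM enzyme in 100 mM potassium phosphate pH 6.5, 5 mM EDTA, 5 mM DTT, 0.001% Triton X-100. Reaction started with substrate; fluorescence (ex 360/em 465 nm) followed over 20 minutes. IC50 by standard methods.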
# Chain of human Cat S (P25774 115-331): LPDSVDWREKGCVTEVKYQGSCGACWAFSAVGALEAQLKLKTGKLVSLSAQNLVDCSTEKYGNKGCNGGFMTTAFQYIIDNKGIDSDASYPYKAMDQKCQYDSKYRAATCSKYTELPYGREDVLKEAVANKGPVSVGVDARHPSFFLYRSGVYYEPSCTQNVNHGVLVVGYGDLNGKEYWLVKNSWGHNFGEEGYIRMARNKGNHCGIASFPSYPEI
row,IC50 [nM],Structure (SMILES)
1,1.1,"N#CC1(NC(=O)[C@@H]2C[C@@H](S(=O)(=O)c3ccc(Br)cc3C(F)(F)F)C[C@H]2C(=O)N2CC(F)(F)C2)CC1 [Example 117, (1R,2R,4R)-4-(4-Bromo-2-trifluoromethyl-benzenesulfonyl)-2-(3,3-difluoro-azetidine-1-carbonyl)-cyclopentanecarboxylic acid (1-cyano-cyclopropyl)-amide]"
2,3,"N#CC1(NC(=O)[C@@H]2C[C@@H](S(=O)(=O)c3ccc(F)cc3C(F)(F)F)C[C@H]2C(=O)N2CC(F)(F)C2)CC1 [Example 118, (1R,2R,4R)-2-(3,3-Difluoro-azetidine-1-carbonyl)-4-(4-fluoro-2-trifluoromethyl-benzenesulfonyl)-cyclopentanecarboxylic acid (1-cyano-cyclopropyl)-amide]"
3,0.2,"Cn1cc(-c2ccc(S(=O)(=O)[C@@H]3C[C@@H](C(=O)NC4(C#N)CC4)[C@H](C(=O)N4CC(F)(F)C4)C3)c(C(F)(F)F)c2)cn1 [Example 120, (1R,2R,4R)-2-(3,3-Difluoro-azetidine-1-carbonyl)-4-[4-(1-methyl-1H-pyrazol-4-yl)-2-trifluoromethyl-benzenesulfonyl]-cyclopentanecarboxylic acid (1-cyano-cyclopropyl)-amide]"
4,0.2,"Cc1cc(-c2ccc(S(=O)(=O)[C@@H]3C[C@@H](C(=O)NC4(C#N)CC4)[C@H](C(=O)N4CC(F)(F)C4)C3)c(C(F)(F)F)c2)ccn1 [Example 121, (1R,2R,4R)-2-(3,3-Difluoro-azetidine-1-carbonyl)-4-[4-(2-methyl-pyridin-4-yl)-2-trifluoromethyl-benzenesulfonyl]-cyclopentanecarboxylic acid (1-cyano-cyclopropyl)-amide]"
5,0.2,"N#CC1(NC(=O)[C@@H]2C[C@@H](S(=O)(=O)c3ccc(-c4ccnc(Cl)c4)cc3C(F)(F)F)C[C@H]2C(=O)N2CC(F)(F)C2)CC1 [Example 122, (1R,2R,4R)-4-[4-(2-Chloro-pyridin-4-yl)-2-trifluoromethyl-benzenesulfonyl]-2-(3,3-difluoro-azetidine-1-carbonyl)-cyclopentanecarboxylic acid (1-cyano-cyclopropyl)-amide]"
6,0.1,"N#CC1(NC(=O)[C@@H]2C[C@@H](S(=O)(=O)c3ccc(-c4cncc(Cl)n4)cc3C(F)(F)F)C[C@H]2C(=O)N2CC(F)(F)C2)CC1 [Example 123, (1R,2R,4R)-4-[4-(6-Chloro-pyrazin-2-yl)-2-trifluoromethyl-benzenesulfonyl]-2-(3,3-difluoro-azetidine-1-carbonyl)-cyclopentanecarboxylic acid (1-cyano-cyclopropyl)-amide]"
7,0.2,"Cn1nccc1-c1ccc(S(=O)(=O)[C@@H]2C[C@@H](C(=O)NC3(C#N)CC3)[C@H](C(=O)N3CC(F)(F)C3)C2)c(C(F)(F)F)c1 [Example 124, (1R,2R,4R)-2-(3,3-Difluoro-azetidine-1-carbonyl)-4-[4-(2-methyl-2H-pyrazol-3-yl)-2-trifluoromethyl-benzenesulfonyl]-cyclopentanecarboxylic acid (1-cyano-cyclopropyl)-amide]"
8,0.3,"N#CC1(NC(=O)[C@@H]2C[C@@H](S(=O)(=O)c3ccc(C4CC4)cc3C(F)(F)F)C[C@H]2C(=O)N2CC(F)(F)C2)CC1 [Example 125, (1R,2R,4R)-4-(4-Cyclopropyl-2-trifluoromethyl-benzenesulfonyl)-2-(3,3-difluoro-azetidine-1-carbonyl)-cyclopentanecarboxylic acid (1-cyano-cyclopropyl)-amide]"
9,0.6,"N#CC1(NC(=O)[C@@H]2C[C@@H](S(=O)(=O)c3ccc(-c4cncc(-c5cnc(Cl)cn5)n4)cc3C(F)(F)F)C[C@H]2C(=O)N2CC(F)(F)C2)CC1 [Example 126, (1R,2R,4R)-4-[4-(5′-Chloro-[2,2]bipyrazinyl-6-yl)-2-trifluoromethyl-benzenesulfonyl]-2-(3,3-difluoro-azetidine-1-carbonyl)-cyclopentanecarboxylic acid (1-cyano-cyclopropyl)-amide]"
10,1.1,"N#CC1(NC(=O)C2CC(S(=O)(=O)c3ccc(OC4COC4)cc3C(F)(F)F)CC2C(=O)N2CC(F)(F)C2)CC1 (stereo not shown) [Example 127, 2-(3,3-Difluoro-azetidine-1-carbonyl)-4-[4-(oxetan-3-yloxy)-2-trifluoromethyl-benzenesulfonyl]-cyclopentanecarboxylic acid (1-cyano-cyclopropyl)-amide]"
11,0.7,"N#CC1(NC(=O)C2CC(S(=O)(=O)c3ccc(-n4cccn4)cc3C(F)(F)F)CC2C(=O)N2CC(F)(F)C2)CC1 (stereo not shown) [Example 128, 2-(3,3-Difluoro-azetidine-1-carbonyl)-4-(4-pyrazol-1-yl-2-trifluoromethyl-benzenesulfonyl)-cyclopentanecarboxylic acid (1-cyano-cyclopropyl)-amide]"

# The next lines start with the compound.
row,Structure (SMILES),IC50 [nM]
1,"Cc1cc(Cl)ccc1S(=O)(=O)[C@@H]1C[C@@H](C(=O)NCC#N)[C@H](C(=O)N2CCN(C)CC2)C1 [Example 33, (1R,2R,4R)-4-(4-Chloro-2-methyl-benzenesulfonyl)-2-(4-methyl-piperazine-1-carbonyl)-cyclopentanecarboxylic acid cyanomethyl-amide]",1.6
2,"CC(C)(C#N)NC(=O)[C@@H]1C[C@@H](S(=O)(=O)c2ccccc2)C[C@H]1C(=O)N1CCOCC1 [Example 34, (1R,2R,4R)-4-Benzenesulfonyl-2-(morpholine-4-carbonyl)-cyclopentanecarboxylic acid (cyano-dimethyl-methyl)-amide]",2.5
3,"N#CC1(NC(=O)[C@@H]2C[C@@H](S(=O)(=O)c3ccccc3)C[C@H]2C(=O)N2CCOCC2)CCC1 [Example 35, (1R,2R,4R)-4-Benzenesulfonyl-2-(morpholine-4-carbonyl)-cyclopentanecarboxylic acid (1-cyano-cyclobutyl)-amide]",4
4,"N#CCNC(=O)[C@@H]1C[C@@H](S(=O)(=O)c2cccc3ccccc23)C[C@H]1C(=O)N1CCOCC1 [Example 36, (1R,2R,4R)-2-(Morpholine-4-carbonyl)-4-(naphthalene-1-sulfonyl)-cyclopentanecarboxylic acid cyanomethyl-amide]",0.4
5,"N#CCNC(=O)[C@@H]1C[C@@H](S(=O)(=O)c2ccccc2C(F)(F)F)C[C@H]1C(=O)N1CCOCC1 [Example 37, (1R,2R,4R)-2-(Morpholine-4-carbonyl)-4-(2-trifluoromethyl-benzenesulfonyl)-cyclopentanecarboxylic acid cyanomethyl-amide]",0.9
6,"N#CCNC(=O)[C@@H]1C[C@@H](S(=O)(=O)Cc2ccccc2)C[C@H]1C(=O)N1CCOCC1 [Example 38, (1R,2R,4R)-2-(Morpholine-4-carbonyl)-4-phenylmethanesulfonyl-cyclopentanecarboxylic acid cyanomethyl-amide]",533
7,"CC(C)CS(=O)(=O)[C@@H]1C[C@@H](C(=O)NCC#N)[C@H](C(=O)N2CCOCC2)C1 [Example 39, (1R,2R,4R)-4-(2-Methyl-propane-1-sulfonyl)-2-(morpholine-4-carbonyl)-cyclopentanecarboxylic acid cyanomethyl-amide]",445
8,"N#CCNC(=O)[C@@H]1C[C@@H](S(=O)(=O)CC2CC2)C[C@H]1C(=O)N1CCOCC1 [Example 40, (1R,2R,4R)-4-Cyclopropylmethanesulfonyl-2-(morpholine-4-carbonyl)-cyclopentanecarboxylic acid cyanomethyl-amide]",230
9,"N#CC1(NC(=O)[C@@H]2C[C@@H](S(=O)(=O)c3ccccc3)C[C@H]2C(=O)Nc2ccc(F)cc2)CC1 [Example 42, (1R,2R,4S)-4-Benzenesulfonyl-cyclopentane-1,2-dicarboxylic acid 1-[(1-cyano-cyclopropyl)-amide]2-[(4-fluoro-phenyl)-amide]]",25.5
10,"Cc1cc(Cl)ccc1S(=O)(=O)[C@H]1C[C@@H](C(=O)N2CCOCC2)[C@H](C(=O)N2CCC[C@H]2C#N)C1 [Example 44, (S)-1-[(1R,2R,4S)-4-(4-Chloro-2-methyl-benzenesulfonyl)-2-(morpholine-4-carbonyl)-cyclopentanecarbonyl]-pyrrolidine-2-carbonitrile]",1300
11,"Cc1cc(Cl)ccc1S(=O)(=O)[C@@H]1C[C@@H](C(=O)NC2(C#N)CCN(C)CC2)[C@H](C(=O)N2CCOCC2)C1 [Example 45, (1R,2R,4R)-4-(4-Chloro-2-methyl-benzenesulfonyl)-2-(morpholine-4-carbonyl)-cyclopentanecarboxylic acid (4-cyano-1-methyl-piperidin-4-yl)-amide formiate]",0.1
12,"N#CC1(NC(=O)[C@@H]2C[C@@H](S(=O)(=O)c3ccc(F)cc3Cl)C[C@H]2C(=O)N2CC(F)(F)C2)CC1 [Example 119, (1R,2R,4R)-4-(2-Chloro-4-fluoro-benzenesulfonyl)-2-(3,3-difluoro-azetidine-1-carbonyl)-cyclopentanecarboxylic acid (1-cyano-cyclopropyl)-amide]",6.1
13,"N#CC1(NC(=O)[C@@H]2C[C@@H](S(=O)(=O)c3ccc(N4CCN(C5CC5)CC4)cc3C(F)(F)F)C[C@H]2C(=O)N2CC(F)(F)C2)CC1 [Example 129, (1R,2R,4R)-4-[4-(4-Cyclopropyl-piperazin-1-yl)-2-trifluoromethyl-benzenesulfonyl]-2-(3,3-difluoro-azetidine-1-carbonyl)-cyclopentanecarboxylic acid (1-cyano-cyclopropyl)-amide]",0.6
14,"CC(C)(C)N1CCN(c2ccc(S(=O)(=O)[C@@H]3C[C@@H](C(=O)NC4(C#N)CC4)[C@H](C(=O)N4CC(F)(F)C4)C3)c(C(F)(F)F)c2)CC1 [Example 130, (1R,2R,4R)-4-[4-(4-tert-Butyl-piperazin-1-yl)-2-trifluoromethyl-benzenesulfonyl]-2-(3,3-difluoro-azetidine-1-carbonyl)-cyclopentanecarboxylic acid (1-cyano-cyclopropyl)-amide]",0.4
